Here are results for ten compounds from patent US8354443B2, “Cyclopropane indolinone derivatives” (Hoffmann-La Roche Inc., priority 2009, dated 2013).

pEC50: −log10 of the molar value.

In this assay the test system is recombinant AMPK proteins (α1β1γ1, α2β1γ1, α1(1-335), α1(1-394) or α2(1-394)). Description: Scintillation Proximity Assay (AMPK activation). Type of assay: biochemical, human. As to conditions: effective concentration of activator for 50% of maximal enzyme activity; 2 hr at 30° C.; AMPK form not specified. The text has this: Recombinant human AMPK α1β1γ1, α2β1γ1 or AMPK a subunit truncations α1 (1-335), α1 (1-394) and α2(1-394) were constructed, expressed and purified as described previously (Pang, T., Zhang, Z. S., Gu, M., Qiu, B. Y., Yu, L. F., Cao, P. R., Shao, W., Su, M. B., Li, J. Y., Nan, F. J., and Li, J. (2008) or purchased from Invitrogen (San Diego, Calif., U.S.A.). Rat liver AMPK heterotrimer enzyme was obtained from Upstate (Billerica, Mass., U.S.A.).
Before the Scintillation Proximity Assay (SPA) assay, 200 nM recombinant AMPK proteins (α1β1γ1, α2β1γ1, α1(1-335), α1(1-394) or α2(1-394)) were fully phosphorylated as described previously (Pang et al., 2008). SPA reactions were performed in 96-well plates at a final volume of 50 μl containing 20 mM Tris-HCl pH 7.5, 5 mM MgCl2, 1 mM DTT, 2 μM biotin-SAMS, 2 μM ATP, 0.2 μCi/well [γ-^33P]ATP, and various amount of activator. Reactions were initiated by the addition of 50 nM recombinant AMPK proteins to the reaction solutions and incubated at 30° C. for 2 hr. After that, reactions were terminated by the addition of 40 μl stop solution containing 80 μg streptavidin-coated SPA beads per well, 50 mM EDTA, 0.1% Triton X-100 in PBS, pH 7.5 and incubated for 1 hr. Finally, a 160 μl suspension solution containing 2.4 M CsCl, 50 mM EDTA, and 0.1% Triton X-100 in PBS (pH 7.5) was added to the reaction solution to suspend SPA beads completely. SPA signals were determined with a Wallac MicroBeta plate counter (PerkinElmer) 30 min later for calculation of the amount of product formed. The amount of products formed in 2 hr was plotted against activator concentrations to determine the effective concentration of the activator (EC50) required for 50% of maximal enzyme activity.
For orientation: SPA uses beads or plates that emit light when radiolabelled molecules are held near them.
The term pEC50 denotes the negative decadic logarithm of the EC50, by convention in mol/L. Regarding `O=C(O)c1cccc(CN2C(=O)[C@]3(C[C@@H]3c3ccccc3F)c3ccccc32)c1` (mixture of isomers) [Example 8, (1S,2R) and (1R,2S)-3-((2-(2-fluorophenyl)-2′-oxospiro[cyclopropane-1,3′-indoline]-1′-yl)methyl)benzoic acid], the negative-log EC50 (pEC50) was 5.56.
`O=C(O)c1cccc(CN2C(=O)[C@]3(C[C@H]3c3ccccc3F)c3ccccc32)c1` (mixture of isomers) [Example 9, (1S,2S) and (1R,2R)-3-((2-(2-fluorophenyl)-2′-oxospiro[cyclopropane-1,3′-indoline]-1′-yl)methyl)benzoic acid]: the pEC50 was 5.92.
In the case of `CN(C)[C@H]1CCN(CCN2C(=O)[C@]3(C[C@@H]3c3ccc(Cl)cc3)c3ccccc32)C1` (mixture of isomers) [Example 76, (1S,2R)-2-(4-chlorophenyl)-1′-(2-((S)-3-(dimethylamino)pyrrolidin-1-yl)ethyl)spiro[cyclopropane-1,3′-indolin]-2′-one and (1R,2S)-2-(4-chlorophenyl)-1′-(2-((S)-3-(dimethylamino)pyrrolidin-1-yl)ethyl)spiro[cyclopropane-1,3′-indolin]-2′-one], the negative-log EC50 (pEC50) was 5.96.
With `CN(C)[C@@H]1CCN(CCN2C(=O)[C@@]3(C[C@H]3c3ccc(Cl)cc3)c3ccccc32)C1` (mixture of isomers) [Example 77, (1S,2R)-2-(4-chlorophenyl)-1′-(2-((R)-3-(dimethylamino)pyrrolidin-1-yl)ethyl)spiro[cyclopropane-1,3′-indolin]-2′-one and (1R,2S)-2-(4-chlorophenyl)-1′-(2-((R)-3-(dimethylamino)pyrrolidin-1-yl)ethyl)spiro[cyclopropane-1,3′-indolin]-2′-one], the pEC50 is 5.66.
The value for `CC1CN(CCNCCN2C(=O)[C@]3(C[C@@H]3c3ccc(Cl)cc3)c3ccccc32)CC(C)O1` (mixture of isomers) [Example 130, (1S,2R) and (1R,2S)-2-(4-chlorophenyl)-1′-(2-(2-(2,6-dimethylmorpholino)ethylamino)ethyl) Spiro[cyclopropane-1,3′-indolin]-2′-one] was 5.96; that for `O=C(O)c1cccc(CN2C(=O)[C@@]3(C[C@H]3c3ccc(Cl)cc3)c3ccccc32)c1` (racemic) [Example 1, (1R,2S) and (1S,2R)-3-((2-(4-chlorophenyl)-2′-oxospiro[cyclopropane-1,3′-indoline]-1′-yl)methyl)benzoic acid] was 5.59.
Regarding `O=C(O)c1cccc(CN2C(=O)[C@@]3(C[C@@H]3c3ccc(Cl)cc3)c3ccccc32)c1` (racemic) [Example 2, (1R,2R) and (1S,2S)-3-((2-(4-chlorophenyl)-2′-oxospiro[cyclopropane-1,3′-indoline]-1′-yl)methyl)benzoic acid], the pEC50 is 6.02.
With `O=C(O)c1cccc(CN2C(=O)[C@]3(C[C@@H]3c3cccc(Cl)c3)c3ccccc32)c1` (racemic) [Example 3, (1S,2R) and (1R,2S)-3-((2-(3-chlorophenyl)-2′-oxospiro[cyclopropane-1,3′-indoline]-1′-yl)methyl)benzoic acid], the pEC50 is 5.53.
With `N#Cc1ccc([C@H]2C[C@]23C(=O)N(Cc2cccc(C(=O)O)c2)c2ccccc23)cc1` (racemic) [Example 5, (1S,2R) and (1R,2S)-3-((2-(4-cyanophenyl)-2′-oxospiro[cyclopropane-1,3′-indoline]-1′-yl)methyl)benzoic acid], the pEC50 is 5.28.
As for `O=C(O)c1cc(CN2C(=O)[C@]3(C[C@@H]3c3ccc(Cl)cc3)c3ccccc32)ccc1Cl` (racemic) [Example 6, (1S,2R) and (1R,2S)-2-chloro-5-((2-(4-chlorophenyl)-2′-oxospiro[cyclopropane-1,3′-indoline]-1′-yl)methyl)benzoic acid], the pEC50 is 5.15.
